Laboratory results as given in the NIST ThermoML archive (doi:10.1021/je800110r).

Settings: 313.14 K, Liquid, Vibrating tube method

CCCCCCCCCC [decane]
Settings	mass density [kg/m3]
15552 kPa	727.4
15582 kPa	727.2
15613 kPa	727.3
15637 kPa	727.3
15663 kPa	727.3
15908 kPa	727.6
15941 kPa	727.5
15972 kPa	727.6
16007 kPa	727.6
16031 kPa	727.6
16067 kPa	727.7
16091 kPa	727.6
16114 kPa	727.7
16151 kPa	727.8
16180 kPa	727.7
16204 kPa	727.8
16241 kPa	727.8
16273 kPa	727.8
16306 kPa	727.9
16338 kPa	727.9
16359 kPa	727.8
16381 kPa	727.9
16402 kPa	728
16427 kPa	727.9
16452 kPa	727.9
16478 kPa	728
16507 kPa	728
16537 kPa	728
16566 kPa	728
16587 kPa	728
16618 kPa	728.1
16648 kPa	728.1
16683 kPa	728.1
16721 kPa	728.2
16748 kPa	728.1
16784 kPa	728.2
16824 kPa	728.1
16860 kPa	728.2
16883 kPa	728.2
16907 kPa	728.3
16935 kPa	728.3
16975 kPa	728.4
16996 kPa	728.4
17023 kPa	728.3
17046 kPa	728.4
17070 kPa	728.3
17101 kPa	728.4
17124 kPa	728.5
17149 kPa	728.5
17170 kPa	728.4
17191 kPa	728.4
17222 kPa	728.6
17243 kPa	728.6
17264 kPa	728.5
17296 kPa	728.6
17320 kPa	728.5
17348 kPa	728.5
17377 kPa	728.5
17408 kPa	728.6
17430 kPa	728.7
17455 kPa	728.7
17481 kPa	728.6
17502 kPa	728.8
17528 kPa	728.7
17557 kPa	728.8
17609 kPa	728.8
17763 kPa	728.9
17790 kPa	728.9
17820 kPa	729
17842 kPa	729
17877 kPa	729.1
17905 kPa	729
17931 kPa	729.1
17958 kPa	729
17988 kPa	729.1
18011 kPa	729.1
18042 kPa	729.1
18062 kPa	729.2
18096 kPa	729.1
18131 kPa	729.2
18170 kPa	729.2
18202 kPa	729.2
18226 kPa	729.2
18249 kPa	729.2
18273 kPa	729.3
18301 kPa	729.3
18325 kPa	729.4
18346 kPa	729.4
18374 kPa	729.4
18403 kPa	729.5
18439 kPa	729.3
18460 kPa	729.4
18494 kPa	729.4
18522 kPa	729.5
18544 kPa	729.6
18569 kPa	729.5
18600 kPa	729.6
18628 kPa	729.5
18646 kPa	729.5
18671 kPa	729.5
18697 kPa	729.6
18722 kPa	729.5
18748 kPa	729.6
18781 kPa	729.6
18812 kPa	729.7
18842 kPa	729.7
18869 kPa	729.7
18894 kPa	729.8
18927 kPa	729.8
18953 kPa	729.7
18979 kPa	729.8
19001 kPa	729.8
19027 kPa	729.8
19054 kPa	729.8
19076 kPa	729.8
19102 kPa	729.9
19133 kPa	729.9
19152 kPa	730
19187 kPa	730
19210 kPa	729.9
19237 kPa	729.9
19256 kPa	730
19287 kPa	730.1
19326 kPa	730
19353 kPa	730
19380 kPa	730.1
19412 kPa	730.1
19441 kPa	730.2
19466 kPa	730.2
19487 kPa	730.2
19512 kPa	730.2
19546 kPa	730.2
19564 kPa	730.2
19582 kPa	730.2
19606 kPa	730.3
19634 kPa	730.2
19655 kPa	730.3
19686 kPa	730.3
19711 kPa	730.4
19727 kPa	730.4
19745 kPa	730.4
19773 kPa	730.4
19804 kPa	730.3
19823 kPa	730.5
19848 kPa	730.4
19867 kPa	730.5
19889 kPa	730.5
19908 kPa	730.5
19940 kPa	730.5
19959 kPa	730.6
19985 kPa	730.5
20008 kPa	730.6
20028 kPa	730.6
20055 kPa	730.6
20074 kPa	730.5
20097 kPa	730.6
20126 kPa	730.4
20150 kPa	730.6
20172 kPa	730.7
20205 kPa	730.7
20221 kPa	730.7
20238 kPa	730.8
20257 kPa	730.7
20287 kPa	730.8
20308 kPa	730.7
20329 kPa	730.8
20385 kPa	730.8
20430 kPa	730.9
20460 kPa	730.9
20488 kPa	730.9
20511 kPa	731
20535 kPa	730.9
20586 kPa	731
20611 kPa	731
20632 kPa	730.9
20663 kPa	731.1
20687 kPa	731.1
20708 kPa	731
20732 kPa	731.2
20767 kPa	731.1
20791 kPa	731.2
20819 kPa	731.1
20850 kPa	731.2
20872 kPa	731.1
20900 kPa	731.1
20932 kPa	731.4
21014 kPa	731.3
21046 kPa	731.3
21075 kPa	731.3
21144 kPa	731.3
21163 kPa	731.4
21200 kPa	731.3
21226 kPa	731.6
21308 kPa	731.5
21387 kPa	731.5
21414 kPa	731.7
21440 kPa	731.6
21471 kPa	731.6
21495 kPa	731.7
21516 kPa	731.6
21536 kPa	731.6
21563 kPa	731.7
21597 kPa	731.7
21621 kPa	731.6
21642 kPa	731.8
21663 kPa	731.8
21686 kPa	731.8
21728 kPa	731.9
21752 kPa	731.8
21771 kPa	731.8
21827 kPa	731.8
21852 kPa	731.9
21883 kPa	731.9
21911 kPa	731.9
21932 kPa	731.9
21953 kPa	731.9
21985 kPa	731.9
22006 kPa	731.9
22034 kPa	732
22060 kPa	732.1
22083 kPa	732.1
22115 kPa	732
22140 kPa	732.1
22165 kPa	732
22198 kPa	732.2
22216 kPa	732
22245 kPa	732.2
22263 kPa	732.1
22292 kPa	732.2
22321 kPa	732.2
22348 kPa	732.2
22374 kPa	732.2
22400 kPa	732.2
22426 kPa	732.3
22522 kPa	732.3
22577 kPa	732.3
22645 kPa	732.5
22672 kPa	732.5
22699 kPa	732.4
22729 kPa	732.6
22756 kPa	732.5
22794 kPa	732.6
22828 kPa	732.6
22855 kPa	732.6
22882 kPa	732.5
22904 kPa	732.6
22939 kPa	732.7
23398 kPa	733
23435 kPa	732.9
23468 kPa	732.9
23492 kPa	733
23529 kPa	733
23554 kPa	733
23579 kPa	733.1
23611 kPa	733.2
23636 kPa	733
23669 kPa	733.1
23699 kPa	733.2
23732 kPa	733.2
23758 kPa	733.2
23792 kPa	733.3
23821 kPa	733.4
23851 kPa	733.2
23873 kPa	733.2
23894 kPa	733.3
23923 kPa	733.4
23954 kPa	733.4
23992 kPa	733.4
24027 kPa	733.4
24054 kPa	733.4
24081 kPa	733.5
24116 kPa	733.5
24142 kPa	733.4
